Assay results as given in patent publication US20250346629A1, “USE OF D-ENANTIOMERIC PEPTIDE LIGANDS OF MONOMERIC ALPHA-SYNUCLEIN FOR THE THERAPY OF VARIOUS SYNUCLEINOPATHIES” (PRIAVOID GMBH, priority 2021, published 2025).
Square brackets hold non-standard residues; d marks the D form. Peptide text beside a SMILES is read from it.

Tests used:
[1] = Solubility of D-peptides in buffer (UV-vis of supernatant after centrifugation); assay type: physicochemical; conditions: different buffers including PBS, aqueous buffer; different buffer conditions including PBS pH 7.4; 1 h at 37° C., 20 800×g centrifugation; read-out: starting concentration up to which the compound remained completely in the supernatant
Description: D-enantiomeric peptides with C-terminal amidation were acquired from CASLO (CASLO, DK) as a lyophilized chloride salt powder having a purity of >95%.

monomeric α-syn = monomeric α-syn (Homo sapiens, UniProt P37840); assay: Size-exclusion chromatography of monomeric α-syn after incubation with SVD-1a (FIG. 13); assay type: biochemical; conditions: 10 μM α-syn monomer with 0-80 μM SVD-1a, 2 h, 37° C., 300 rpm
Procedure: 10 μM α-syn monomer were incubated with 0, 5, 10, 20, 40 and 80 μM SVD-1a in PBS, pH 7.4, for 2 h at 37° C. and 300 rpm. The SEC was carried out with a Bio SEC-3 column (150 Å, Agilent, USA) at 1 ml min^−1 and PBS, pH 7.4, as mobile phase. The samples were centrifuged for 5 minutes at 20 800×g before the supernatant was injected. The protein was detected at A214. α-syn monomer eluted after 6.91 min retention time. The peak area of the α-syn monomer was integrated for the 10 μM α-syn sample and set to 100%. The concentration of monomeric α-syn was not reduced in the presence of increasing concentrations of SVD-1a. SVD-1a itself was only eluted during the purification and regeneration procedure of the SEC, which is highly probably attributable to its high net positive charge.

solubility at 1 h [1]: ≥ 1000 µM
concentration of monomeric α-syn (SEC peak area) (monomeric α-syn): not reduced
Compound: CC[C@@H](C)[C@@H](NC(=O)[C@@H](Cc1c[nH]cn1)NC(=O)[C@@H](CCC(=O)O)NC(=O)[C@@H](CCC(N)=O)NC(=O)[C@@H](Cc1c[nH]c2ccccc12)NC(=O)[C@@H](Cc1ccc(O)cc1)NC(=O)[C@H](NC(=O)[C@@H](CCC(=O)O)NC(=O)[C@@H](Cc1c[nH]cn1)NC(=O)[C@H](NC(=O)[C@H]1CCCN1C(=O)[C@@H](CC(C)C)NC(=O)[C@H](N)CCCNC(=N)N)[C@H](C)O)[C@H](C)O)C(=O)N[C@H](Cc1c[nH]c2ccccc12)C(=O)N[C@H](Cc1c[nH]cn1)C(=O)N[C@H](C)C(=O)N[C@H](CCCNC(=N)N)C(=O)N[C@H](CCCNC(=N)N)C(=O)N[C@H](CCCNC(=N)N)C(=O)N[C@H](CCCNC(=N)N)C(=O)N[C@H](CCCNC(=N)N)C(N)=O [SVD-1a, rlpthetywqehiwharrrrr] (H-[dR][dL][dP][dT][dH][dE][dT][dY][dW][dQ][dE][dH][dI][dW][dH][dA][dR][dR][dR][dR][dR]-NH2)
